According to patent US5871779A, “Treatment of arthropathies with vanadate compounds or analogues thereof” (Mount Sinai Hospital Corporation, priority 1996, dated 1999):

Columns and labels:
stromelysin = experiment: synovial stromelysin expression in arthritic rats (Northern blot); type: in vivo, rat; conditions: BMOV-treated (with NAC) vs control, Day 18
Procedure: (§1) Collagenase, stromelysin, and IL-1 expression were quantitated in each group of rats. Selected rats in each group were sacrificed on Day 18 post arthritis onset to measure collagenase, stromelysin, and IL-1 expression via the Northern Blot. Synovial biopsies were pooled and homogenized in the presence of RNASTAT-60 (Tel Test). Total RNA was isolated following the manufacturer's instructions, washed in 70% ethanol, and dissolved in 30 μl RNA loading buffer (Sigma) containing ethidium bromide. The RNA was electrophoresed on a 1% agarose formaldehyde gel and transferred to 0.45 μm nylon filter membrane (Magna NT, MSL). The blot was prehybridised in 50% formamide, 5×SSPE, 5×dendhardts, 1% SDS, 200 μg/ml ssDNA and 50 μg/ml tRNA. The rat collagenase cDNA (bp. 1-550 of locus RATCOL genbank accession M60616), rat stromelysin (ATCC, Rockville, Md.), or rat […] (genbank accession D00403) were labeled by random primed incorporation of ^32 P-dATP (Random Primed Labeling Kit, Boerhinger Manheim). After overnight hybridization at 42° C. overnight, the blot was washed in 1×SSPE at 37° C. and exposed to Kodak X-Ornat AP film for 24 hours at -70° C. with an intensifying screen. The blot was stripped with 50% formamide in 2×SSPE, checked for residual counts and reprobed. The resulting autoradiographs were digitized and analyzed with NIH image software and normalized for RNA loading.

IL-1α = experiment: synovial IL-1α expression in arthritic rats (Northern blot); type: in vivo, rat; conditions: BMOV-treated (with NAC) vs control, Day 18
Procedure: as §1

MDAY-D2 tumor = MDAY-D2 tumor growth in vivo, orthovanadate, vanadyl sulphate, vanadyl hydroperoxide (Example 6B); parameters: species or system mice
From the text: In order to examine the ability of vanadyl compounds to reduce tumor formation, growth and metastases, a specific animal model which allows investigation of all of these processes in the same animal was chosen. This model involves the injection of a metastatic haematopoietic cell line, MDAY-D2, into mice subcutaneously. These cells form a tumor at the site of injection and its size can be easily determined. In addition, these cells metastasize to the liver and metastases can be detected histologically after day 17 to 19. This model provides a very sensitive and reproducible approach to investigate the effect of vanadyl compounds on tumor growth and metastases.
In a separate experiment using the same animal model, the effect of orthovanadate, vanadyl sulphate and vanadyl hydroperoxide administration on tumor growth in vivo was examined. On Day 1, 20 mice were injected with 2×10^5 MDAY-D2 cell subcutaneously. The mice were divided into four groups of five mice. At day 5, the animals were injected subcutaneously with 50 μl of water alone or containing 10 mg/ml of orthovanadate, 10 mg/ml of vanadyl sulphate, or 10 mg/ml of vanadyl hydroperoxide. This treatment was continued daily for 16 days. At day 21, the mice were sacrificed and the tumors dissected and weighed.

HTB14 cells = experiment: viability of HTB14 cells; type: cell-based, human; conditions: 0-50 μM, 48 hours
Procedure: (§2) Fos and jun activity are also required for cellular proliferation in many tumor cell lines. Accordingly, the effect of orthovanadate on adherent cells and cell suspensions were examined. MDAY-D2 (a mouse lymphoid cell line grown in suspension) and HTB14 cells (an adherent human primary astrocytoma cell line) were incubated in media containing 0-50 μM orthovanadate for 48 hours. The cells were harvested and the number of viable cells determined.

LS180 = experiment: MTT cytotoxicity assay, LS180; type: cell-based, human; conditions: LS180, 72 hours
Procedure: (§3) The relative cytotoxicity of various compounds on tumor cell lines was investigated as follows. Cytotoxicity was measured by the MTT microculture tetrazolium colorimetric assay for all cell lines. The relative cytotoxicity of Na3 VO4 and VOSO4 was investigated using the following tumor cell lines: P388(WT) murine leukemia, P388 (ADR) murine leukemia, Lewis murine lung, MCF7 (WT) human breast, […] human lung, K562 human erythroleukemia, A431 human epidermal, LS180 human colon and SK-OV-3 human ovarian. The relative cytotoxicity of doxorubicin, Na3 VO4 and VOSO4 was investigated using the following tumor cell lines: P388(WT) murine leukemia, P388 (ADR) murine leukemia, MCF7(WT) human breast and MCF7 (ADR) human breast. The relative cytotoxicity of BMOV, BEOV and naglivan was investigated using the following tumor cell lines: P388(WT) murine leukemia, P388 (ADR) murine leukemia, Lewis murine lung, H460 human lung, K562 human erythroleukemia, and SK-OV-3 human ovarian.
The cells were plated (number of cells/well was different from cell line to cell depending on the dividing rate) in a 96-well microculture plate 24 hours prior to the delivery of the vanadium compounds. Serial concentrations of solutions of the test compounds (0.05-100 μM) were delivered to the corresponding wells. […] The absorbance of each well was read with a Titertek Multiskan (310C) spectrophotometer at 570 nm. […]

tumor cell lines = experiment: cell death of proliferating tumor cell lines; type: cell-based
Procedure: as §2

MCF7 (WT) = experiment: MTT cytotoxicity assay, MCF7 (WT); type: cell-based, human; conditions: MCF7 (WT), 72 hours; read-out: IC50 Value
Procedure: as §3
(§4) The cells were plated (number of cells/well was different from cell line to cell depending on the dividing rate) in a 96-well microculture plate 24 hours prior to the delivery of the vanadium compounds. Serial concentrations of solutions of the test compounds (0.05-100 μM) were delivered to the corresponding wells. A blank column (without cells) and a control column (with cells without vanadium) were left. The cells were incubated for 72 hours continuously. An MTT solution was added to each well after this incubation period and the cells were incubated for 4 more hours for the completion of the dyeing process. The medium was removed find DMSO was added to each well. The absorbance of each well was read with a Titertek Multiskan (310C) spectrophotometer at 570 nm. The percentage of the absorbance of each vanadium concentration relative to the control calculated and the value of the 50% growth inhibition concentration (IC50) was obtained from the % control versus concentration plot. Each assay was repeated three times and the reported IC50 values were the mean of these three runs.

synoviocytes = experiment: synoviocyte proliferation, dye exclusion (Example 24); type: cell-based
Procedure: The effect of vanadium compounds on synoviocyte proliferation was investigated as follows. Synoviocytes were plated on six well plates and treated with orthovanadate or vanadyl sulphate and incubated for 24 hours. The cells were removed and the number of viable cells determined by the dye exclusion method.

KB8, KB8-5 and KB85-11 = experiment: killing of drug resistant ovarian cancer cell lines KB8, KB8-5 and KB85-11; type: cell-based; conditions: 0-50 μM, 48 hours
Procedure: The effect of orthovanadate on three ovarian cancer cell lines, KB8, KB8-5 and KB85-11, which have increasing drug resistance, respectively, relative to the parent cell line, KB3-1 was compared. These drug resistant cell lines are not killed by several classes of chemotherapeutic agents such as colchicine, vinblastine and doxorubicin. In the study, cell lines of increasing drug resistance (KB8, KB8-5 and KB-85-11) and the parent cell line, KB3-1, were incubated in media (DMEM) containing 0-50 μM orthovanadate for 48 hours. The cells were harvested and the number of viable cells determined.

MCF7 (ADR) = experiment: MTT cytotoxicity assay, MCF7 (ADR); type: cell-based, human; conditions: MCF7 (ADR), 72 hours; read-out: IC50 Value
Procedure: as §3, §4

Compound	percent inhibition of stromelysin gene expression (stromelysin) [%]	percent inhibition of IL-1α gene expression (IL-1α) [%]	detectable tumors (MDAY-D2 tumor; day 21)	animal deaths (MDAY-D2 tumor; groups of five, 10 mg/ml, 50 μl daily s.c.)	efficacy in reducing tumor growth (MDAY-D2 tumor; mouse, in vivo)	toxicity to HTB14 cells (HTB14 cells)	IC50 (LS180) [µM]	cell death (tumor cell lines; 0-50 μM)	cell death complete (tumor cell lines; within 3 days of continuous treatment)	IC50 (MCF7 (WT)) [µM]	Number of cells (synoviocytes; 25 μM, 24 hours (control 2.6))	cytotoxicity to synoviocytes (synoviocytes; 24 hours)	synoviocyte proliferation (synoviocytes; 24 hours)	killing of drug resistant cell lines (KB8, KB8-5 and KB85-11)	IC50 (MCF7 (ADR)) [µM]
Cc1occc(=O)c1[O-].Cc1occc(=O)c1[O-].[O]=[V+2] [BMOV, bis(methylmaltolato) oxovanadium (IV)]	58	85	–	–	–	–	–	–	–	–	–	–	–	–	–
[Na+].[Na+].[Na+].[O]=[V]([O-])([O-])[O-] [orthovanadate, sodium orthovanadate]	–	–	one mouse did not have detectable tumors	One animal died	most efficacy	toxic	16.4	concentration dependent increase in cell death	over 98%	8.5	0.1 10^-5	cytotoxic to the cells	inhibited synoviocyte proliferation	equally effective	30.7
